For test [1], the target named is T1, LXYL-P1-2 (Lentinula edodes, UniProt G8GLP2, E529Q).
T1 construct: expressed in Pichia pastoris GS115 from pPIC3.5K-lxyl-p1-2; KEX2 cleavage after Arg35, mature N-terminus Asp36; endoglycosidase-treated for crystals; tetramer
Description: X-ray crystallography, […] Å. Type of test: binding. To be noted: co-crystallised with XDT, cleaved in crystal; product complex with xylose; 0.1 M Hepes pH 7.5, 16 °C.

Test [2] addresses β-xylosidase/glucosidase LXYL-P1-2 (Lentinula edodes). The test is described as follows: SEC; molecular weight by gel filtration; conditions not given. On the technique in general: Size exclusion chromatography separates by hydrodynamic size, large species first.
Test [3] has the same target. Description: crystal structure; native crystal, endoglycosidase-treated protein at 10 mg/ml, hanging drop at 16 °C, 13% PEG3350, 0.1 M Tris-HCl pH 8.5, 0.2% MgCl2; 2.4 Å; tetramer in the asymmetric unit.

Consider `CC(=O)O[C@@]12CO[C@@H]1C[C@H](O)[C@@]1(C)C(=O)[C@H](O)C3=C(C)[C@@H](OC(=O)[C@H](O)[C@@H](NC(=O)c4ccccc4)c4ccccc4)C[C@@](O)([C@@H](OC(=O)c4ccccc4)[C@H]21)C3(C)C` [10-deacetyltaxol], for which the “X-ray crystallography, 2.27 Å” value in test [1] was “The electron density clearly shows the existence of xylose and DT”.

Usually stoichiometry N stands for a count of units in the complex or per binding partner. Regarding “β-xylosidase/glucosidase LXYL-P1-2 (enzyme)”, the stoichiometry N in test [2] and in test [3] was 4 throughout.

Regarding `OC1OC[C@@H](O)[C@H](O)[C@H]1O` (stereo partly shown) [xylose], in test [1], the “X-ray crystallography, 2.27 Å” value is “The electron density clearly shows the existence of xylose and DT”.
